Results from patent US12144872B1, “Modified nanodelivery system and method for enhanced in vivo medical and preclinical imaging” (Florida A&M University, priority 2012, dated 2024).

Tested on: 4T1-luc tumor models
Experiment: In vivo bioluminescence/fluorescence imaging and kinetics in luciferase-expressing tumor models
Conditions: mice, 150 mg/kg luciferin solution
Description: All the cell lines were modified for the luciferase reporter gene expression.
Trypsinization was stopped with medium containing 10% FBS. The cells were centrifuged, and the floating cells in the supernatant were discarded. The cell pellet was resuspended in medium containing 10% FBS and mixed thoroughly. Trypan blue staining was used to determine the number of viable cells. The resuspended cells were centrifuged, and cell dilutions of 2±10^6 cells/100 μl were prepared in growth medium. The 100 μl of cell suspension was injected subcutaneously into the right flank area of each mouse. The mice were randomized into control and treatment groups when xenografts were palpable with a tumor size of 50 mm^3.
The orthotopic tumor model was used to mimic the cancer in humans in athymic nu/nu mice (6-week old). […] Only cell suspensions of >90% viability, as determined by trypan blue exclusion, were used. […]
Nu/Nu mice were anesthetized and tumor cells (2 million per mouse) were injected via tail vein. Only cell suspensions of >90% viability, as determined by trypan blue exclusion, were used. […]
Imaging was performed with an IVIS Spectrum (16). Bioluminescent signals were quantified using Living Image® software (Caliper Life Sciences., Alameda, CA.).
Imaging was performed with an IVIS SpectrumCT (35). Bioluminescent signals were quantified using Living Image® software (Caliper Life Sciences., Alameda, CA.).

O=C(O)[C@H]1CSC(c2nc3ccc(O)cc3s2)=N1 [Free luciferin, luciferin]
time to clearance from circulation: ≤ 60 min
